Test results: patent US20100227853A1, “INHIBITORS OF CYCLIC AMP PHOSPHODIESTERASES” (Trustees of Boston College, priority 2008, published 2010)

What was measured:
PDE4A5 = target: T1, PDE4A5 (Rattus norvegicus, UniProt P54748); assay: 5FOA growth assay in fission yeast strain expressing PDE4A5; type: cell-based; conditions: 20 uM
T1 construct: targets used in the assays are full-length proteins (as opposed to simply the catalytic domain); expressed in transfected cells; host or cells: Schizosaccharomyces pombe, PDE gene integrated in place of cgs2
T1 sequence (P54748 1-844): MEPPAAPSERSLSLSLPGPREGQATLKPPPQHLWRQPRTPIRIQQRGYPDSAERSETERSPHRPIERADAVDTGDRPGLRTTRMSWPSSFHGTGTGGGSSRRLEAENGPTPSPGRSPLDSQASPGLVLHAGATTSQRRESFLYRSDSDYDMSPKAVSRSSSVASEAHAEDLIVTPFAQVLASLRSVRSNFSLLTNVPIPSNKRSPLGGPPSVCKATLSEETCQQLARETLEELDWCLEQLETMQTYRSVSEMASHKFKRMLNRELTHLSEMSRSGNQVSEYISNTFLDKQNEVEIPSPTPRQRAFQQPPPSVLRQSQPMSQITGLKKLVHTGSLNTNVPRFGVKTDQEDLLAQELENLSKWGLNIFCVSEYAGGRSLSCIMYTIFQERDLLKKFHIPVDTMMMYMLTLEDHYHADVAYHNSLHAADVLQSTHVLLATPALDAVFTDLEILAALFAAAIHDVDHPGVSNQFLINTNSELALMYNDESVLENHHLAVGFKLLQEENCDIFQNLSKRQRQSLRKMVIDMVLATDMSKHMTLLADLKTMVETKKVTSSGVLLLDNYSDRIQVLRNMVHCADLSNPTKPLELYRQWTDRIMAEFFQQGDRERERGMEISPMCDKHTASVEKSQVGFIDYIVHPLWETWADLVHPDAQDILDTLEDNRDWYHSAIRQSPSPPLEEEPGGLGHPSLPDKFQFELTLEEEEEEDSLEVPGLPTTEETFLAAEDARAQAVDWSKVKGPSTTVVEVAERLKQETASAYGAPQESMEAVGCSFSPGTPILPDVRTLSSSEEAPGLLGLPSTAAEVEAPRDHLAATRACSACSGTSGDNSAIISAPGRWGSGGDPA
Experimental: (§1) High throughput drug screens were carried out at the Broad Institute's Chemical Biology Program screening facility (Broad Institute, Cambridge, Mass.). Depending upon the strain, cultures were pregrown to exponential phase in EMM complete medium containing from 0.5 to 2.5 mM cAMP to repress fbp1-ura4 transcription. Cells were collected by centrifugation, resuspended in 5FOA medium, and 25 μl were transferred to 384-well microtiter dishes (untreated, with flat clear bottoms) that had been pre-filled with 25 μl 5FOA medium and pre-pinned with 100 nl of compounds (stock solutions were generally 10 mM) from a subset of the Prestwick Bioactive and the Microsource Spectrum compound libraries. Starting cell concentrations ranged from 0.5×10^5 to 4×10^5 cells/ml depending on the screening strain. […] Other positive control dishes contained 5 mM cAMP in the 5FOA medium. Cultures were grown for 48 hours at 30° C., sealed in an airtight container with moist paper towels to prevent evaporation. Optical densities (OD600) of cultures were measured using a microplate reader. Bioinformatic analysis of the results to determine composite Z scores was performed as previously described^30, 31.
(§2) Cells were pregrown in EMM medium [MP Biomedicals (Solon, Ohio), 3% glucose, filter-sterilized to avoid carmelization, which would introduce variability into the optical density of the medium] containing from 0 mM to 2.5 mM cAMP (or either 0.5 mM or 1.0 mM cGMP). This was to repress expression of the fbp1-ura4 reporter prior to exposure of cells to 5FOA medium. Cells were grown at 30° C. to exponential phase (approximately 10^7 cells/ml). Cells were collected by centrifugation and resuspended in 5FOA medium, and 25 μl were transferred to 384-well microtiter dishes (untreated, with flat clear bottoms) that had been pre-filled with 25 μl 5FOA medium and pre-pinned with 100 nl of compounds (stock solutions were generally 10 mM). Starting cell concentrations ranged from 0.5×10^5 to 4×10^5 cells/ml depending on the screening strain. […] Other positive control dishes contained 5 mM cAMP in the 5FOA medium for PDEs that lack appropriate control compounds. Cultures were grown for 48 hours at 30° C., sealed in an airtight container with moist paper towels to prevent evaporation. Optical densities (OD600) of cultures were measured using a microplate reader. Bioinformatic analysis of the results to determine composite Z scores was performed as previously described (1, 3).

PDE4B3 = target: T2, PDE4B3 (Mus musculus, UniProt Q8VBU5); assay: 5FOA growth assay in fission yeast strain expressing PDE4B3; type: cell-based, Murine; conditions: for Composite Z score, PDE4B3: high throughput 5FOA growth screen
T2 construct: targets used in the assays are full-length proteins (as opposed to simply the catalytic domain); expressed in transfected cells; host or cells: Schizosaccharomyces pombe, PDE gene integrated in place of cgs2
T2 sequence (Q8VBU5 1-721): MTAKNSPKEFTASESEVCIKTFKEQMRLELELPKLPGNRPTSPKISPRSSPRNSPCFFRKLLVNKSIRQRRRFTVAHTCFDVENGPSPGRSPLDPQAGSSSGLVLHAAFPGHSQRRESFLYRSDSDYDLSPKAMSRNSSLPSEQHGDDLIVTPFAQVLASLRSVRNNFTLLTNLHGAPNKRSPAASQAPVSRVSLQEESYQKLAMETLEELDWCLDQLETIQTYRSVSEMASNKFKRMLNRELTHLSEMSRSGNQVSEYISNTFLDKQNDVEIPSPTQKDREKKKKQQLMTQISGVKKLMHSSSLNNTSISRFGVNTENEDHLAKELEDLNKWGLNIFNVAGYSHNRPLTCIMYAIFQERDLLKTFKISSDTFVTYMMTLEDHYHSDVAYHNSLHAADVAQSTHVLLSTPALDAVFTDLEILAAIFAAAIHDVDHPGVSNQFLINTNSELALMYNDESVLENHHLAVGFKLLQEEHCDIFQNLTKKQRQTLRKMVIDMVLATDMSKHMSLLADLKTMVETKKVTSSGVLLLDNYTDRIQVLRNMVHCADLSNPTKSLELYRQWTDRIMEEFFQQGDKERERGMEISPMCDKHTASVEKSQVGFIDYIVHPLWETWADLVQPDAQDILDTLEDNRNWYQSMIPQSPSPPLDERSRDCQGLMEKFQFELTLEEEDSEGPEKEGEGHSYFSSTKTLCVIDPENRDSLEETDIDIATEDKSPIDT
Experimental: as §1, with “Cells were collected by centrifugation, resuspended in 5FOA medium, and 25 μl were transferred to 384-well microtiter dishes (untreated, with flat clear bottoms) that had been pre-filled with 25 μl 5FOA medium and pre-pinned with 100 nl of compounds (stock solutions were generally 10 mM) from a subset of the Prestwick Bioactive and the Microsource Spectrum compound libraries.” left out
(§3) To determine whether the 5FOA growth phenotype could be exploited for high throughput drug screening, strains expressing PDE2A, PDE4A, PDE4B, or PDE8A were pre-grown in EMM medium containing cAMP and then transferred to 5FOA medium in 384 well microtiter plates in the presence or absence of cAMP. OD600 measurements were taken after 48 hours incubation at 30° C.
as §2, with “Cells were collected by centrifugation and resuspended in 5FOA medium, and 25 μl were transferred to 384-well microtiter dishes (untreated, with flat clear bottoms) that had been pre-filled with 25 μl 5FOA medium and pre-pinned with 100 nl of compounds (stock solutions were generally 10 mM).” left out

[1] = system: PDE4A, PDE4B, PDE4D, PDE7A, PDE7B, PDE8A, PDE3A; assay: Summary of PDE inhibitor profile; set-up: key to inhibitor class, Table 15: (1): Strong PDE4A5 inhibitor; (2): Strong PDE4A, 4B inhibitor; Moderate PDE4D inhibitor; (3): Strong PDE4A. 4B inhibitor; (4): Strong PDE4A, 4B, PDE7A inhibitor: Weak PDE4D inhibitor
PDE4A1 = target: T3, PDE4A1 (Mus musculus, UniProt O89084); assay: 5FOA growth assay (high throughput screen, ED50) in fission yeast strain expressing PDE4A1; type: cell-based; conditions: high throughput 5FOA growth screen; greater than 8.53 = statistically-significant inhibitor
T3 construct: targets used in the assays are full-length proteins (as opposed to simply the catalytic domain); expressed in transfected cells; host or cells: Schizosaccharomyces pombe, PDE gene integrated in place of cgs2
T3 sequence (O89084 1-610 isoform O89084-2): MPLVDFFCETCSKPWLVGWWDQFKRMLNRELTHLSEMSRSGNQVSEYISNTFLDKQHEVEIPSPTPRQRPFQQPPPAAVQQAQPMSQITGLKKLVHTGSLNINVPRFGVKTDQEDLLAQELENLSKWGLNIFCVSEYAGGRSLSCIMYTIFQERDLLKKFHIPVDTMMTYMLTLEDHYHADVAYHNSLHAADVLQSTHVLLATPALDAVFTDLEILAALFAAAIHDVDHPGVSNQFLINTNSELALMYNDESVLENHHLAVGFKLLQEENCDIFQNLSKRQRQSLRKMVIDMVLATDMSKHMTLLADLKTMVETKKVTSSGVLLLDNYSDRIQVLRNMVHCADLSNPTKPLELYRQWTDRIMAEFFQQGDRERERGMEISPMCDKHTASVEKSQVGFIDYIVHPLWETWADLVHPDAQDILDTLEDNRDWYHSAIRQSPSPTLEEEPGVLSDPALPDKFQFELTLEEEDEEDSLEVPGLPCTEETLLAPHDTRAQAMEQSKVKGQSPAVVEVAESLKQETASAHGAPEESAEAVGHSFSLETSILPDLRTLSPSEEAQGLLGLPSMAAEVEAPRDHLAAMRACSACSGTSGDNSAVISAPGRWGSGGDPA
Experimental: as §1, with “Cells were collected by centrifugation, resuspended in 5FOA medium, and 25 μl were transferred to 384-well microtiter dishes (untreated, with flat clear bottoms) that had been pre-filled with 25 μl 5FOA medium and pre-pinned with 100 nl of compounds (stock solutions were generally 10 mM) from a subset of the Prestwick Bioactive and the Microsource Spectrum compound libraries.” left out
as §3
as §2, with “Cells were collected by centrifugation and resuspended in 5FOA medium, and 25 μl were transferred to 384-well microtiter dishes (untreated, with flat clear bottoms) that had been pre-filled with 25 μl 5FOA medium and pre-pinned with 100 nl of compounds (stock solutions were generally 10 mM).” left out

PDE7A = PDE7A (Homo sapiens, UniProt Q13946); assay: 5FOA growth assay in fission yeast strain expressing PDE7A; type: cell-based; set-up: targets used in the assays are full-length proteins (as opposed to simply the catalytic domain); expressed in transfected cells; host or cells: Schizosaccharomyces pombe, PDE gene integrated in place of cgs2; conditions: high throughput 5FOA growth screen
Sequence of PDE7A (Q13946 whole entry, the tested form may be a part): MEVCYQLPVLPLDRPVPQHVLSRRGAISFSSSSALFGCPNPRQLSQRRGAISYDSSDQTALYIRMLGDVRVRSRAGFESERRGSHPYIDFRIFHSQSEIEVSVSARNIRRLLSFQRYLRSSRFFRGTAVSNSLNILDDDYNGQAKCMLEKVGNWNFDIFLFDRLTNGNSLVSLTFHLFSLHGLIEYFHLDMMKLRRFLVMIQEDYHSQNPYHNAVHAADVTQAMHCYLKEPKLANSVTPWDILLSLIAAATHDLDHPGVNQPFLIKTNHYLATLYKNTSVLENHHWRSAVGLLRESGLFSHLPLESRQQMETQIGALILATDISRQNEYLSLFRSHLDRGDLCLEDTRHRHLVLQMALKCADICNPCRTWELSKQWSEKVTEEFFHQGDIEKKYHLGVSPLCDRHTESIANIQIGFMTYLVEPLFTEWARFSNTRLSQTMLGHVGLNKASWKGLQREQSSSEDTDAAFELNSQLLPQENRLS
Experimental: PDE inhibition allows growth in 5FOA medium as measured by optical density after 48 hours incubation at 30° C. Compound BC12 and six structural analogs were tested for growth stimulation.
as §2

Structure (SMILES)	1 Assay (20 uM) 4A5 (PDE4A5) [ND ND ND ND]	1 Assay (20 uM) 4B3 (PDE4B3) [ND ND ND ND]	inhibitor class, Table 15 [1]	Composite Z score, PDE4A1 (PDE4A1)	Composite Z score, PDE4B3 (PDE4B3)	Composite Z score, PDE7A (PDE7A)
COC(=O)c1sc(SC)c(C#N)c1-c1ccco1 [2055, C21]	2.07	21.4955				
CCOC(=O)c1sc2sc(C(=O)OCC)c(-c3ccc(Cl)cc3)c2c1N [2055, N01]	0.582	1.8421				
COC(=O)C1=C(C)N(C)C(=O)/C1=C\c1cccs1 [Compound 27-1]			27-1 (1)			
COC(=O)C1=C(C)N(CC(C)C)C(=O)/C1=C\c1ccco1 [Compound 27-2]			27-2 (2)			
COC(=O)C1=C(C)N(CC(C)C)C(=O)/C1=C\c1cccs1 [Compound 27-3]			27-3 (1)			
COC(=O)C1=CN(Cc2ccccc2)C(=O)/C1=C\c1cccs1 [Compound 27-4]			27-4 (1)			
O=C(c1ccco1)N1CCN(c2ncnc3sc4c(c23)CCCC4)CC1 [Compound 2083J20]				18.511	5.6256	0.8496
CCN(CC)CCCNc1ncnc2sc3c(c12)CC(C)CC3 (centres unmarked) [Compound 2083L15]				1.9931	−0.877	−1.18
Cc1sc2ncnc(N3CCN(CCO)CC3)c2c1C [Compound 2084A21]				0.1942	0.6718	0.0079
O=C(Nc1ncnc2sc3c(c12)CCCCC3)c1ccco1 [Compound 2084G06]				6.4203	0.884	−1.808
O=C(Nc1ncnc2sc3c(c12)CCC3)c1cccs1 [Compound 2084I06]				7.8022	0.9421	12.419
Cc1sc2ncnc(NCC(=O)O)c2c1C [Compound 2085F18]				0.3168	0.8136	−1.774
Cc1sc2ncnc(N(C)C)c2c1C [Compound 2085O15]				1.0991	−1.519	−0.627
